Data on five molecules can be found in patent US6444470B1, “Transformation-enhancing compositions and methods of use” (Pioneer Hi-Bred International, Inc., priority 1999, dated 2002).

Structures are written as SMILES. Where two headings read alike, the source gives them in different places.

Assay [1] concerns maize elite inbred P38. Briefly: Pre-harvest ear injection, then Agrobacterium-mediated transformation, inbred P38. Format: in vivo. How it is done: (§1) Ears from greenhouse-grown or field-grown maize elite inbreds, P38 and N46, were treated with one of the following agents or combinations of agents at three days after pollination: dicamba, hormone cocktail, 2,4-D (2,4-dichlorophenoxyacetic acid), callus medium, water, ABA, Pluronic F68, proline mix, ACC, AVG, salts cocktail 4, salts cocktail 2 (Gamborg et al. (1968) Exp. Cell Res. 50:151), salts cocktail 1 (Murashige and Skoog (1962) Physiol. Plant. 15:473), salts cocktail 3 (Chu et al. (1975) Scientia Sinic. 18:659), 2,4D+salts cocktail 1, 2,4-D+salts cocktail 3, 2,4-D+dicamba and dicamba+ACC. The solutions were filter sterilized before applying to the ears at a rate of 10 mL/ear. The solutions were applied to the ears by injecting between the silks and husks at three days post pollination. Care was taken not to disrupt the ears.
(§2) Agrobacterium-mediated transformation of maize was also employed. See, U.S. application Ser. No. 08/788,018, herein incorporated by reference.
(§3) The ear injection was conducted as described in Example I. Other synthetic auxins were tested for their effects on the transformation of N46 and P38 maize.
(§4) An endogenous plant growth regulator, abscisic acid (ABA), and other compounds known to influence plant growth were tested for their effects on maize transformation when applied to ears at four days after pollination using the injection method described in Example I. Additionally, the effect of the injection of water was also tested. […] ACC is a product of the reaction catalyzed by ACC synthase and a substrate of the reaction catalyzed by ACC oxidase, the ethylene-forming enzyme. AVG, on the other hand, is an inhibitor of ACC synthase.
Several nitrogen-containing treatments were applied to ears at three days after pollination. The treatments employed are salt formulations that are commonly used in plant tissue culture media including salts cocktail 4, salts cocktail 2, salts cocktail 1 and salts cocktail 3.
Finally, some combination treatments were examined for their effects on the transformation of N46 and P38 maize (Table 7).

Assay [2] has as its system maize elite inbred N46. The experiment in a line: Pre-harvest ear injection, then Agrobacterium-mediated transformation, inbred N46. The class given is in vivo. The conditions noted are these: for percent of transformed colonies relative to the no-infusion control (in words): pre-harvest ear injection. How it is done: as §1, §2, §3, §4
Several nitrogen-containing treatments were applied to ears at three days after pollination. The treatments employed are salt formulations that are commonly used in plant tissue culture media including salts cocktail 4, salts cocktail 2, salts cocktail 1 and salts cocktail 3. […]

For assay [3], the system named is maize ears. Briefly: Lanolin-paste application to ears, then particle bombardment transformation. The class given is in vivo. The following applies: for 21 Day Callus Response / 42 Day Callus Response / Regenerable Colonies / Plants Transformed: 0.5% in lanolin paste on half an ear, three days after pollination; for Plants Transformed: particle bombardment; for recovery of regenerable colonies and transformed plants (in words): lanolin paste, versus lanolin controls and non-treated control. From the text: Transformation-enhancing compounds were also introduced via lanolin. kLanolin paste was typically applied at a mass of 1 gram per ear. Husks were peeled back, but not removed, silks were removed, and the lanolin mixed with the compound was applied to the pericarp of the developing seed using a spatula. Ears were divided into halves longitudinally: one half would received lanolin with the compound and the other half received only lanolin.
Al media recipes are in the Table 10-18.
The effects of pre-harvest ear treatments of zeatin riboside and 2,4-D on maize transformation were investigated. Both agents were applied to separate ears at three days after pollination in a lanolin paste. The method employed for applying the transformation-enhancing agents of the invention to ears in lanolin paste is described in Example I. Ears were divided into halves longitudinally with one half of the ear receiving lanolin with zeatin riboside or 2,4-D and the other half receiving only lanolin. An additional ear that was not treated was used as a control.

Assay [4] has as its system maize immature embryos. The following applies: for 21 Day Callus Response / 42 Day Callus Response / Colonies to Plants / Colonies to Regeneration / Colonies with GUS Expression: 100 μM ear pre-treatment. How it is done:
(§5) For transformation by particle bombardment, maize ears were harvested at ten days after pollination and surface sterilized in 50% CHLOROX™ laundry bleach plus 0.5% Tween 20 surfactant for 20 minutes, and rinsed two times with sterile water. The immature embryos were excised and placed embryo axis side down (scutellum side up), 25 embryos per plate, on 604 medium, incubated at 28° C. in the dark for three days. Prior to bombardment, all embryos were transferred to plates containing 604 medium and 15% sucrose and then aligned within the 2.5-cm target zone in preparation for bombardment. Al media recipes are in the Table 10-18.
(§6) The sample plates were bombarded at level #4 in a Biorad PDS-1000 Helium gun. All samples received a single shot at 650 PSI, with a total of six aliquots taken from each tube of prepared particles/DNA. Following bombardment the embryos were maintained on 604 medium +15% sucrose for three days in the dark, and then transferred to 604S medium with 3 mg/L bialaphos, maintained for three weeks on 3 mg/L bialaphos, and then transferred to 604J at 5 mg/L bialaphos. Once herbicide-resistant colonies were well established and ready for regeneration, approximately eight weeks after bombardment, the herbicide-resistant colonies were transferred to 288O regeneration medium containing 3 mg/L bialaphos, maintained in the dark or seven days, and then transferred to the light at 28° C. for shoot formation and elongation. Callus response, colony and plant recovery and GUS gene expression were monitored during the course of the experiments.
Prior to bombardment, freshly excised embryos were placed onto either 560P, 601H, or 604 medium and incubated at 28° C. in the dark for three days. Prior to bombardment, all embryos were transferred to 604 with 15% sucrose. […] Colonies were transferred to regeneration medium containing 3 mg/L Bialaphos after 8-9 weeks in culture.

Assay [5] relates to maize elite inbred P38. How it is done:
as §1, §5
A plasmid vector comprising the coding region of uidA operably linked to a ubiquitin promoter was made. This plasmid DNA plus plasmid DNA containing a BAR selectable marker gene operably linked to the double 35S promoter was precipitated onto 1.1 μm (average diameter) tungsten pellets using a CaCl2 precipitation procedure as follows:
The final mixture was sonicated briefly and allowed to incubate under constant vortexing for 10 minutes. After the precipitation period, the tubes were centrifuged briefly, liquid removed, washed with […] 100% ethanol, and centrifuged for 30 seconds. Again the liquid was removed, and 60 μL 100% ethanol was added to the final tungsten particle pellet. For particle gun bombardment, the tungsten/DNA particles were briefly sonicated and 10 μL spotted onto the center of each macrocarrier and allowed to dry about two minutes before bombardment.
as §6
The effects of injecting into ears three days after pollination 10 mL of a 100 μM of dicamba, an auxin analogue, on maize transformation was investigated.

Where [6] appears, read: Table 5, ear injection three days after pollination, 10 mL/ear.
[7] abbreviates: Table 6, ear injection four days after pollination.
Where [8] appears, read: initial culture medium 560P, 79 embryos.
[9] abbreviates: initial culture medium 601H, 84 embryos.
Where [10] appears, read: initial culture medium 604, 128 embryos.
The mark [11] stands for this setting: 100 μM ear injection three days after pollination, of 385 embryos.
Where [12] appears, read: 10 mL of 100 μM injected into ears three days after pollination, of 385 embryos.

For the molecule `O=C(O)COc1ccc(Cl)cc1Cl` [2,4-D, 2,4-dichlorophenoxyacetic acid], in assay [1] (setting [6]), the “Number of GUS Positive Colonies” value came out at 2 and the “Percent Colony Transformation” value came out at 4.20%. Moreover, in assay [1] (pre-harvest ear injection), the “percent of transformed colonies relative to the no-infusion control (in words)” value is on record as “significantly greater percentages of transformed colonies than the control”. Moreover, in assay [2] (setting [6]), the “Number of GUS Positive Colonies” value was 4 and the “Percent Colony Transformation” value was 2.70%. For the same molecule, in assay [3], the “21 Day Callus Response” value is recorded as 15.4%, the “42 Day Callus Response” value was determined as 12.5%, the “Regenerable Colonies” value came to 1.5% and the “Plants Transformed” value is listed as 1.5%. Besides, the “recovery of regenerable colonies and transformed plants (in words)” value in assay [3] is “Regenerable colonies and transformed maize plants were recovered”.

In the case of `CC1=CC(=O)CC(C)(C)[C@@]1(O)/C=C/C(C)=C\C(=O)O` [ABA, abscisic acid], in assay [1] (setting [7]), the “Number of GUS Positive Colonies” value was found to be 0 and the “Percent Colony Transformation” value was 0%. In assay [2] (setting [7]), the “Number of GUS Positive Colonies” value is on record as 25 and the “Percent Colony Transformation” value is 20%. In addition, the “percent of transformed colonies relative to the no-infusion control (in words)” value in assay [2] is given as “largest increase in percent colony transformation above the control”.

As for `NC1(C(=O)O)CC1` [ACC, aminocyclopropane-1-carboxylic acid], in assay [1] (setting [7]), the “Number of GUS Positive Colonies” value was determined as 0 and the “Percent Colony Transformation” value turned out to be 0%. In assay [2] (setting [7]), the “Number of GUS Positive Colonies” value was determined as 12 and the “Percent Colony Transformation” value came to 6.80%.

On to `C/C(=C\CNc1ncnc2c1ncn2[C@@H]1O[C@H](CO)[C@@H](O)[C@H]1O)CO` [Zeatin riboside, zeatin riboside], for which, in assay [3], the “21 Day Callus Response” value is reported as 9.4%, the “42 Day Callus Response” value was 9.4%, the “Regenerable Colonies” value is given as 0.6% and the “Plants Transformed” value is given as 0.6%. For the same molecule, the “recovery of regenerable colonies and transformed plants (in words)” value in assay [3] was “Regenerable colonies and transformed maize plants were recovered”.

Regarding `COc1c(Cl)ccc(Cl)c1C(=O)O` [dicamba], in assay [4] (setting [8]), the “21 Day Callus Response” value is 12.7%(10), the “42 Day Callus Response” value is 24%(19), the “Colonies to Plants” value is on record as 1.3%(1) and the “Colonies to Regeneration” value was 2.5%(2). Also, the “Colonies with GUS Expression” value in assay [4] (setting [8]) is 2.5%(2). Further, in assay [4] (setting [9]), the “21 Day Callus Response” value was 17.9%(16), the “42 Day Callus Response” value is 16.5%(14), the “Colonies to Plants” value was found to be 0% and the “Colonies to Regeneration” value is recorded as 4.8%(4). Moreover, the “Colonies with GUS Expression” value in assay [4] (setting [9]) is 2.4%(2). In assay [4] (setting [10]), the “21 Day Callus Response” value is 23.4%(30), the “42 Day Callus Response” value is listed as 33%(42), the “Colonies to Plants” value is reported as 0% and the “Colonies to Regeneration” value is 11.7%(15). Further, the “Colonies with GUS Expression” value in assay [4] (setting [10]) was 4.7%(6). For the same molecule, the “colonies capable of regeneration” value in assay [4] (100 μM pre-treatment / 560P medium) is given as “one”. Further, in assay [1] (setting [6]), the “Number of GUS Positive Colonies” value is on record as 11 and the “Percent Colony Transformation” value is listed as 1.10%. For the same molecule, in assay [5] (setting [11]), the “Colonies Expressing GUS” value was 8.6%, the “Colonies to Plants” value stood at 4.2% and the “Colonies to Regeneration” value came out at 29.1%. Moreover, the “Plants Transformed” value in assay [5] (100 μM ear injection three days after pollination, particle bombardment, of 385 embryos) was found to be 3.11%. Besides, the “colonies that produced escapes” value in assay [5] (100 μM pre-treatment, of the plants recovered) was “two”. Further, in assay [5] (setting [12]), the “21 Day Callus Response” value amounted to 37.9%, the “42 Day Callus Response” value is on record as 40% and the “56 Day Callus Response” value was found to be 32.2%. In addition, the “Type I embryogenic callus response rate versus non pre-treated control (in words)” value in assay [5] (ears pre-treated with 100 μM) was “higher early in the experiment, and was maintained over the course of the study”. In assay [2] (setting [6]), the “Number of GUS Positive Colonies” value was determined as 89 and the “Percent Colony Transformation” value was 9.50%. In addition, in assay [2], the “percent of transformed colonies relative to the no-infusion control (in words)” value is reported as “superior transformation results”.
